The values that follow are results of earlier work, collected in patent US5854247A, “Piperazine, piperidine and tetrahydropyridine derivatives useful as 5-HT1 recepter agonists” (Merck Sharp & Dohme Ltd., priority 1994, dated 1998).

The conditions of this series: humans, therapeutic doses.

As for `CNS(=O)(=O)Cc1ccc2[nH]cc(CCN(C)C)c2c1` [sumatriptan], the adverse cardiovascular events entry is reported as “certain adverse cardiovascular events”.
